Measurements as given in US11612604B2, “Methods of treating cancer with PLK4 inhibitors” (LUDWIG INSTITUTE FOR CANCER RESEARCH LTD, priority 2017, dated 2023).

target: T1, PLK4 (Homo sapiens, UniProt O00444); assay: Activity (IC50) of the Table 1 compounds as PLK4 inhibitors; assay type: biochemical; conditions: Table 1, IC50 class
T1 sequence (O00444 1-970): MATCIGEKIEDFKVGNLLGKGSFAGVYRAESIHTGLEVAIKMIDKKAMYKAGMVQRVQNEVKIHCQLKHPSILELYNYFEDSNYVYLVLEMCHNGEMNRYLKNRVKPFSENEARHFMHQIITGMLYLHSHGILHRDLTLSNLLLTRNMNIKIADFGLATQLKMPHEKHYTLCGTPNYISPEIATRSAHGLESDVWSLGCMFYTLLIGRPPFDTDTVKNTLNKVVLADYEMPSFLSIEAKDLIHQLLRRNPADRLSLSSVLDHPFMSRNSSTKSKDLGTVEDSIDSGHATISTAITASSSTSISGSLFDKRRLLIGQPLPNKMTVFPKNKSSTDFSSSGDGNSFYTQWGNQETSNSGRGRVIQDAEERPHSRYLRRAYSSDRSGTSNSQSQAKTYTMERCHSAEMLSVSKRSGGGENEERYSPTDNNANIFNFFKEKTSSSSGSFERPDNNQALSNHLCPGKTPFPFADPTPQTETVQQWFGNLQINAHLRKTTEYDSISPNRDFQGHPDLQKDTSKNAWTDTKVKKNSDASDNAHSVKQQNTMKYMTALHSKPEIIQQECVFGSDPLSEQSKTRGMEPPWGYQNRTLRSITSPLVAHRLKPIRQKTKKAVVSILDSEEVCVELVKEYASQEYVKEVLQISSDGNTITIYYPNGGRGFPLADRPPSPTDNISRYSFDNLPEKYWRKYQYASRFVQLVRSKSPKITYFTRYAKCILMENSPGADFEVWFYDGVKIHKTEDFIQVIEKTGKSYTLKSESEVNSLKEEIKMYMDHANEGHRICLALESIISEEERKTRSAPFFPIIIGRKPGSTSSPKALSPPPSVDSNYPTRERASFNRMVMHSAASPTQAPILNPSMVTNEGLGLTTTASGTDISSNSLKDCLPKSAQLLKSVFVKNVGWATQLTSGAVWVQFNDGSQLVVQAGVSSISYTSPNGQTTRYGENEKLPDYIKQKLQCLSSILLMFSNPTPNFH

Row | SMILES | IC50 [nM]
1 | CC(=O)Nc1ccc(Sc2nc(Nc3cc(C)[nH]n3)c(C)c(N3CCCCC3)n2)cc1 | < 100
2 | COCCN(C)c1nc(Sc2ccc(NC(C)=O)cc2)nc(Nc2cc(C)[nH]n2)c1C | < 100
3 | COCCNc1nc(Sc2ccc(NC(C)=O)cc2)nc(Nc2cc(C)[nH]n2)c1C | < 100
4 | COc1c(Nc2cc(C)[nH]n2)nc(Sc2ccc(NC(=O)C3CCCC3)cc2)nc1N1CCOCC1 | < 100
5 | COc1c(Nc2cc(C)[nH]n2)nc(Sc2ccc(NC(=O)C3CCCC3)cc2)nc1N(C)C | < 100
6 | COc1c(Nc2cc(C)[nH]n2)nc(Sc2ccc(NC(C)=O)cc2)nc1N1CCN(CCN)CC1 | < 100
7 | CCN(CC)CCN1CCN(c2nc(Sc3ccc(NC(C)=O)cc3)nc(Nc3cc(C)[nH]n3)c2OC)CC1 | < 100
8 | COc1c(Nc2cc(C)[nH]n2)nc(Sc2ccc(NC(C)=O)cc2)nc1N1CCN(CCN2CCNCC2)CC1 | < 100
9 | COc1c(Nc2cc(C)[nH]n2)nc(Sc2ccc(NC(C)=O)cc2)nc1N1CCC(CC(=O)O)CC1 | < 100
10 | COc1c(Nc2cc(C)[nH]n2)nc(Sc2ccc(NC(C)=O)cc2)nc1N1CCN(CCN2CCN(C)CC2)CC1 | < 100
11 | COC(=O)CC1CCN(c2nc(Sc3ccc(NC(C)=O)cc3)nc(Nc3cc(C)[nH]n3)c2OC)CC1 | < 100
12 | COc1c(Nc2cc(C)[nH]n2)nc(Sc2ccc(NC(C)=O)cc2)nc1N1CCN(C(N)=O)CC1 | < 100
13 | COc1c(Nc2cc(C)[nH]n2)nc(Sc2ccc(NC(C)=O)cc2)nc1N1CCN(CC(=O)O)CC1 | < 100
14 | COc1c(Nc2cc(C)[nH]n2)nc(Sc2ccc(NC(C)=O)cc2)nc1N1CC2CCC(C1)N2CCN(C)C | < 100
15 | COc1c(Nc2cc(C)[nH]n2)nc(Sc2ccc(NC(C)=O)cc2)nc1N1CCC(CC(N)=O)CC1 | < 100
16 | COc1c(Nc2cc(C)[nH]n2)nc(Sc2ccc(NC(C)=O)cc2)nc1N1CCN(C(=N)NO)CC1 | < 100
17 | COc1c(Nc2cc(C)[nH]n2)nc(Sc2ccc(NC(C)=O)cc2)nc1N1CCN(CCN(C)OC)CC1 | < 100
18 | COc1c(Nc2cc(C)[nH]n2)nc(Sc2ccc(NC(C)=O)cc2)nc1N1CCN(CCNC(N)=O)CC1 | < 100
19 | COc1c(Nc2cc(C)[nH]n2)nc(Sc2ccc(NC(C)=O)cc2)nc1N1CC(C)N(CCN(C)C)C(C)C1 (stereo not shown) | < 100
20 | COc1c(Nc2cc(C)[nH]n2)nc(Sc2ccc(NC(C)=O)cc2)nc1N1CCN(C(=N)N)CC1 | < 100
21 | COC(=O)CN1CCN(c2nc(Sc3ccc(NC(C)=O)cc3)nc(Nc3cc(C)[nH]n3)c2OC)CC1 | < 100
22 | COc1c(Nc2cc(C)[nH]n2)nc(Sc2ccc(NC(C)=O)cc2)nc1N1CCN(CCN2CCCCCC2)CC1 | < 100
23 | COc1c(Nc2cc(C)[nH]n2)nc(Sc2ccc(NC(C)=O)cc2)nc1N1CCN(CCNC(=N)N)CC1 | < 100
24 | COC(=O)c1ccc(Sc2nc(Nc3cc(C)[nH]n3)c(OC)c(N3CCN(CCN(C)C)CC3)n2)cc1 | < 100

Row | SMILES | IC50 [nM]
25 | COc1c(Nc2cc(C)[nH]n2)nc(Sc2ccc(NC(C)=O)cc2)nc1C1CCN(CCN(C)C)CC1 | 100 to 1000
26 | COc1c(Nc2cc(C)[nH]n2)nc(Sc2ccc(NC(C)=O)cc2)nc1N1CCC(CC(=O)N(C)C)CC1 | < 100
27 | COc1c(Nc2cc(C)[nH]n2)nc(Sc2ccc(NC(C)=O)cc2)nc1N1CCN(CC(=O)N2CCCCC2)CC1 | < 100
28 | COc1c(Nc2cc(C)[nH]n2)nc(Sc2ccc(NC(C)=O)cc2)nc1N1CC2CCC(C1)N2CCN1CCN(C)CC1 | < 100
29 | COc1c(Nc2cc(C)[nH]n2)nc(Sc2ccc(NC(C)=O)cc2)nc1N1CCN(CCN(C)C)CC1 | < 100
30 | COc1c(Nc2cc(C)[nH]n2)nc(Sc2ccc(C(=O)N(C)C)cc2)nc1N1CCN(CCN(C)C)CC1 | < 100
31 | COc1c(Nc2cc(C)[nH]n2)nc(Sc2ccc(S(C)(=O)=O)cc2)nc1N1CCN(CCN(C)C)CC1 | < 100
32 | CNC(=O)c1ccc(Sc2nc(Nc3cc(C)[nH]n3)c(OC)c(N3CCN(CCN(C)C)CC3)n2)cc1 | < 100
33 | COc1c(Nc2cc(C)[nH]n2)nc(Sc2ccc(NC(C)=O)cc2)nc1N1CCN(CCN(C)Cc2ccccc2)CC1 | < 100
34 | COc1c(Nc2cc(C)[nH]n2)nc(Sc2ccc(NC(C)=O)cc2)nc1N1CCN(CCN(C)c2ccccc2)CC1 | < 100
35 | COc1c(Nc2cc(C)[nH]n2)nc(Sc2ccc(NC(C)=O)cc2)nc1N1CCN(CCN2C3CCCC2CC3)CC1 | < 100
36 | COc1c(Nc2cc(C)[nH]n2)nc(Sc2ccc([S+](C)[O-])cc2)nc1N1CCN(CCN(C)C)CC1 (stereo not shown) | < 100
37 | COc1c(Nc2cc(C)[nH]n2)nc(Sc2ccc(NC(C)=O)cc2)nc1N1CC2CCC(C1)N2CCN1CCCCCCC1 | < 100
38 | COc1c(Nc2cc(C)[nH]n2)nc(Sc2ccc(NC(C)=O)cc2)nc1N1CCN(CCS(C)(=O)=O)CC1 | < 100
39 | COc1c(Nc2cc(C)[nH]n2)nc(Sc2ccc(NC(C)=O)cc2)nc1N1CCN(CCN2C3CCCC2CCC3)CC1 | < 100
40 | COc1c(Nc2ncc(C)s2)nc(Sc2ccc(NC(C)=O)cc2)nc1N1CCN(CCN(C)C)CC1 | < 100
41 | CC(=O)Nc1ccc(Sc2nc(Nc3cc(C)[nH]n3)c(C)c(C3CCN(CCN(C)C)CC3)n2)cc1 | < 100
42 | COc1c(Nc2cc(C)[nH]n2)nc(Sc2ccc(S(C)(=O)=O)cc2)nc1N1CCN(CCN2CCN(C)CC2)CC1 | < 100
43 | COc1c(Nc2cc(C)[nH]n2)nc(Sc2ccc(NS(C)(=O)=O)cc2)nc1N1CCN(CCN(C)C)CC1 | < 100
44 | CCS(=O)(=O)c1ccc(Sc2nc(Nc3cc(C)[nH]n3)c(OC)c(N3CCN(CCN(C)C)CC3)n2)cc1 | < 100
45 | COc1c(Nc2cc(C)[nH]n2)nc(Sc2ccc(S(=O)(=O)C(F)(F)F)cc2)nc1N1CCN(CCN(C)C)CC1 | < 100
46 | COc1c(Nc2cc(C)[nH]n2)nc(Sc2ccc(S(=O)(=O)N(C)C)cc2)nc1N1CCN(CCN(C)C)CC1 | < 100
47 | COc1c(Nc2cc(C)[nH]n2)nc(Sc2ccc(S(=O)(=O)Cc3ccccc3)cc2)nc1N1CCN(CCN(C)C)CC1 | < 100
48 | COc1c(Nc2cc(C)[nH]n2)nc(Sc2ccc(S(=O)(=O)COCc3ccccc3)cc2)nc1N1CCN(CCN(C)C)CC1 | < 100

Row | SMILES | IC50 [nM]
49 | COc1c(Nc2ncc(C)s2)nc(Sc2ccc(S(C)(=O)=O)cc2)nc1N1CCN(CCN(C)C)CC1 | < 100
50 | COc1c(Nc2cc(C)[nH]n2)nc(Sc2ccc(NC(C)=O)cc2)nc1C1CCN(CCN2CCN(C)CC2)CC1 | 100 to 1000
51 | COc1c(Nc2cc(C)[nH]n2)nc(Sc2ccc(S(=O)(=O)CCO)cc2)nc1N1CCN(CCN(C)C)CC1 | < 100
52 | CCCS(=O)(=O)c1ccc(Sc2nc(Cc3cc(C)[nH]n3)c(OC)c(N3CCN(CCN(C)C)CC3)n2)cc1 | < 100
53 | CCS(=O)(=O)c1ccc(Sc2nc(Nc3cc(C)[nH]n3)c(OC)c(N3CCC(CCN(C)C)CC3)n2)cc1 | < 100
54 | COc1c(Nc2cc(C)[nH]n2)nc(Sc2ccc(S(=O)(=O)CC(C)C)cc2)nc1N1CCN(CCN(C)C)CC1 | < 100
55 | CCS(=O)(=O)c1ccc(Sc2nc(Nc3cc(C)[nH]n3)c(OC)c(N3CCN(CCN4CCN(C)CC4)CC3)n2)cc1 | < 100
56 | COc1c(Nc2cc(C)[nH]n2)nc(Sc2ccc(S(=O)(=O)C(C)C)cc2)nc1N1CCN(CCN(C)C)CC1 | < 100
57 | COc1c(Nc2cc(C)[nH]n2)nc(Sc2ccc(S(=O)(=O)Cc3ccc(F)cc3)cc2)nc1N1CCN(CCN(C)C)CC1 | < 100
58 | COc1ccc(CS(=O)(=O)c2ccc(Sc3nc(Nc4cc(C)[nH]n4)c(OC)c(N4CCN(CCN(C)C)CC4)n3)cc2)cc1 | < 100
59 | COc1c(Nc2cc(C)[nH]n2)nc(Sc2ccc(S(=O)(=O)Cc3ccccc3Cl)cc2)nc1N1CCN(CCN(C)C)CC1 | < 100
60 | COc1c(Nc2cc(C)[nH]n2)nc(Sc2ccc(S(=O)(=O)Cc3cccc(Cl)c3)cc2)nc1N1CCN(CCN(C)C)CC1 | < 100
61 | COc1c(Nc2cc(C)[nH]n2)nc(Sc2ccc(S(=O)(=O)Cc3ccncc3)cc2)nc1N1CCN(CCN(C)C)CC1 | < 100
62 | COc1c(Nc2cc(C)[nH]n2)nc(Sc2ccc(S(=O)(=O)Cc3ccccc3)cc2)nc1N1CCC(CCN(C)C)CC1 | < 100
63 | COc1c(Nc2cc(C)[nH]n2)nc(Sc2ccc(S(=O)(=O)Cc3ccccc3)cc2)nc1N1CCN(C)CC1 | < 100
64 | CCS(=O)(=O)c1ccc(Sc2nc(Nc3cc(C)[nH]n3)c(OC)c(N3CCN(C)CC3)n2)cc1 | < 100
65 | COc1c(Nc2cc(C)[nH]n2)nc(Sc2ccc(S(=O)(=O)Cc3cccnc3)cc2)nc1N1CCN(CCN(C)C)CC1 | < 100
66 | COc1c(Nc2cc(C)[nH]n2)nc(Sc2ccc(S(=O)(=O)Cc3ccc(Cl)cc3)cc2)nc1N1CCN(CCN(C)C)CC1 | < 100
67 | COc1c(Nc2cc(C)[nH]n2)nc(Sc2ccc(S(=O)(=O)Cc3ccccc3)cc2)nc1N1CCN(CCN2C3CCCC2CCC3)CC1 | < 100
68 | COc1c(Nc2cc(C)[nH]n2)nc(Sc2ccc(S(=O)(=O)Cc3cccs3)cc2)nc1N1CCN(CCN(C)C)CC1 | < 100
69 | CCS(=O)(=O)c1ccc(Sc2nc(Nc3cc(C)[nH]n3)c(OC)c(N3CCNCC3)n2)cc1 | < 100
70 | COc1c(Nc2cc(C)[nH]n2)nc(Sc2ccc(S(=O)(=O)Cc3nccs3)cc2)nc1N1CCN(CCN(C)C)CC1 | < 100
